# Data published in EP0946548B1, “NOVEL HETEROCYCLIC SUBSTITUTED PYRROLIDINE AMIDE DERIVATIVES” (Aventis Pharmaceuticals Inc., priority 1996, dated 1998).
# Counter-ions that a name gives are not always drawn.
# Columns and labels:
# [1] = target: T1, human jejunal NK2 receptor (Homo sapiens, UniProt P21452); assay: Antagonism of iodinated tachykinin binding to NK2 receptor (125iodohistidyl-1-neurokinin A) in HSKR-1 cells; settings: HSKR-1 cells (mouse 3T3 fibroblasts expressing the human jejunal NK2 receptor); mean of several experiments
# T1 construct: expressed in transfected cells; host or cells: HSKR-1 cells (mouse 3T3 fibroblasts)
# T1 sequence (P21452 1-398): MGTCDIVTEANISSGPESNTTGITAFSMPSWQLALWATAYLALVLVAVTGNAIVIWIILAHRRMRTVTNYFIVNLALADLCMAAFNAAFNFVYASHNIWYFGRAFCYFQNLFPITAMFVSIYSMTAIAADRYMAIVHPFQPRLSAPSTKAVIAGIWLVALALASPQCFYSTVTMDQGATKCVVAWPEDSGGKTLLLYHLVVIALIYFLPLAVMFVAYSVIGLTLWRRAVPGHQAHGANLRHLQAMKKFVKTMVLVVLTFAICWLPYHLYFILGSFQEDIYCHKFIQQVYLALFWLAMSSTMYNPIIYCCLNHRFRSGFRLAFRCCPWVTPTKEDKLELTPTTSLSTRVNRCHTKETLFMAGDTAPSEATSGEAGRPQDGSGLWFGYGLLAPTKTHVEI
# Protocol: (§1) One skilled in the art can determine the NK1 receptor and NK2 receptor affinity in vitro as follows. The NK1 receptor affinity of tachykinin antagonists is evaluated in guinea pig lungs (Keystone Biologicals, Cleveland, OH) and affinity for the NK2 receptor is evaluated in HSKR-1 cells (which are mouse 3T3 fibroblasts expressing the human jejunal NK2 receptor). Tissues or cells are homogenized with a Polytron in 15 volumes of 50 mM Tris-HCl buffer (pH 7.4, 4°C) and centrifuged. The pellet is resuspended in Tris-HCl buffer and is centrifuged; the pellet is washed twice by resuspension. The final pellet is resuspended at a concentration of 40 mg/ml for tissues and 20 mg/ml for cells in incubation buffer and remains at room temperature for at least 15 min prior to use. Receptor binding is initiated by addition of 250 ul membrane preparation in duplicate to 0.1 nM of the following radioligands: ^125I-Bolton Hunter Lys-3 labeled substance P and ^125iodohistidyl-1-neurokinin A; in a final volume of 500 ul of buffer containing 50 mM Tris-HCl (pH 7.4 at room temperature), 0.1% bovine serum albumin, 2 mM mangenese chloride, 40 ug/ml bacitracin, 4 µg/ml leupeptin and chymostatin, 10 µM thiorphan and various doses of the putative tachykinin antagonists. […] Filter bound radioactivity is quantitated in a gamma counter. Nonspecific binding is defined as binding in the presence of 1 µM substance P or neurokinin A. Specific binding is calculated by subtracting nonspecific binding from total binding. Competition of iodinated SP or NKA binding by test compounds or standards is expressed as a percentage of this maximum binding. […]
# (§2) Tachykinin receptor binding (IC50 values) for representative compounds of the present invention are found in Table 1. Specifically, NK1 and NK2 receptor binding values were determined by the method of present Example A. These values represent the mean of several experiments. […]
# [2] = Metabolic stability: disappearance of test compound in human liver S9 supernatant; type: in vitro ADME; settings: initial concentration 10µM, 37°C
# Protocol: (§3) One skilled in the art can determine the metabolic stability for the compounds of the present invention by determining the rate of disappearance of the test comopund in vitro in liver extracts. Metabolic stability is inversely related to the rate of metabolism which can be evaluated by determining the rate of disappearance of the test compounds during the initial linear phase of this assay.
# (§4) This method is carried out using either S9 or S10 liver supernatant obtained from either guinea pig or human liver. Guinea pig liver S9 can be purchased from Vitro Technologies, Baltimore, Md and human liver S9 can be purchased from IIAM, Eaton Pa. Both guinea pig and human S10 supernatant can be prepared as follows: Combine weighed liver (fresh or stored at -80°C until use) and 1.15% aqueous potassium chloride solution (10-15 mL) and homogenize using a PCU Poltron from Kinematics of Switzerland or equivalent. Combine the homogenate with 1.15% aqueous potassium chloride solution, sufficient so that 3 mL of solution (total) is used per […] of liver, and mix. Store the above homogenate on ice at all times prior to use and at -80°C for long term storage.
# (§5) Prepare a stock solution of each test compound in methanol, such that 0.1 mL of the stock solution when spiked into 16 mL of incubation mixture yields an initial concentration of 10µM of the test compound. Using this method the methanol content of the final incubation mixture will not exceed 1%.
# (§6) Prepare the incubation mixture by combining in an incubation beaker S9 or S10 supernatant (4 mL); an aqueous solution containing 1.1 mM NADP, […] (4 units/2 mL)(0.32 mL); and an aqueous 0.1 M dipotassium monohydrogen phosphate solution (7.58 mL). Incubate the test compound by adding 0.1 mL of the stock solution of test compound to an incubation mixture, placed in a shaking water bath at 37°C.
# (§7) To determine the rate of disappearance of test compounds in this assay, remove triplicate aliquots (0.5 mL) from the incubation beaker at 1, 3, 5, 10, 15, 30, and 60 minutes. Freeze all aliquots in a hexane/dry-ice slurry to instantly deactivate the enzymes. Store at -70°C until assayed. The concentration of test compound in each aliquot is determined by HPLC after preparation and as compared to a standard concentration of test compound, such preparations and determinations are well known and appreciated in the art. The rate of disappearance can be determined from the slope of the initial linear phase of this assay by graphing the change in concentration of test compound vs. time.
# (§8) Calibration standards for Compound A were prepared as follows: dissolve 10 mg of Compound A (free base) in methanol (10 mL) to give a 1 mg/mL stock solution. Use acetonitrile to dilute 1 mL of stock solution to 10 mL to give a 100 µg/mL spiking standard and serially dilute the 100µg/mL solution with acetonitrile to give spiking standards having concentrations of 50, 25, 10, 5, 2.5, and 1.0 µg/mL. Calibration standards having concentrations of 10,000; 5,000; 2,500; 1,000; 500; 250; and 100 ng/mL are prepared in duplicated by adding 20 µL of each spiking standards to 0.2 mL of control S9 supernatant. Blanks and samples each receive 20µL of acetonitrile. Calibration standards and aliquots from that assay of compound A were prepared and evaluated as follows: charge a purple sulfonic acid solid phase extraction cartridge (Varian Inc., Harbor City, Ca.) with methanol (1 mL) and an aqueous 0.5% monochloroacetic acid solution (1 mL). Dilute the 0.2 mL of calibration standard or aliquot from the incubation with aqueous 5% acetonitrile (0.5 mL) and add to the charged cartridge. Pull the sample through the cartridge using vacuum, rinse with aqueous 0.5% monochloroacetic acid solution (1 mL), aqueous 50% acetonitrile solution (50 mM potassium hydroxide) (1 mL). Elute into HPLC vial using 60% methanol, 38% water, 1% acetic acid, 1% triethylamine (0.4 mL). […]
# NK1 receptor = target: T2, NK1 receptor (Cavia porcellus, UniProt P30547); assay: Antagonism of iodinated tachykinin binding to NK1 receptor (125I-Bolton Hunter Lys-3 labeled substance P); settings: guinea pig lung membranes; mean of several experiments
# T2 construct: evaluated in guinea pig lungs (Keystone Biologicals, Cleveland, OH); tissue Keystone Biologicals, Cleveland, OH; host or cells: guinea pig lung membranes
# T2 sequence (P30547 whole entry): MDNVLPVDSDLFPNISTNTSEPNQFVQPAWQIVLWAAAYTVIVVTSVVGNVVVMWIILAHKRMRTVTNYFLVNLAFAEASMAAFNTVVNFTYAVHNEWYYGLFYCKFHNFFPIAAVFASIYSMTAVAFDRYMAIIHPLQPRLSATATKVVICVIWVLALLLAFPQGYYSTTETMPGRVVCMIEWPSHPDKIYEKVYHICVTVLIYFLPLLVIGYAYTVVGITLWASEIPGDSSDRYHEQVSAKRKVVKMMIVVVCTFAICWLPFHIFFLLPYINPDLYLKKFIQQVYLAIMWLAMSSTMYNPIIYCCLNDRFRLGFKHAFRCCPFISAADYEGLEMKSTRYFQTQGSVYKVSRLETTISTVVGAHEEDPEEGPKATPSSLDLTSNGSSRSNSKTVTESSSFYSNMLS
# Protocol: as §1, §2
# [3] = Metabolic stability: disappearance of test compound in guinea pig liver S9 supernatant; type: in vitro ADME; settings: initial concentration 10µM, 37°C
# Protocol: as §3, §4, §5, §6, §7, §8
Structure (SMILES),IC50 [1] [nM],"Metabolic Stability in Human Liver S9, concentration ([2]; Time 1 min) [µg/mL]","Metabolic Stability in Human Liver S9, concentration ([2]; Time 3 min) [µg/mL]","Metabolic Stability in Human Liver S9, concentration ([2]; Time 5 min) [µg/mL]","Metabolic Stability in Human Liver S9, concentration ([2]; Time 10 min) [µg/mL]","Metabolic Stability in Human Liver S9, concentration ([2]; Time 15 min) [µg/mL]","Metabolic Stability in Human Liver S9, concentration ([2]; Time 30 min) [µg/mL]","Metabolic Stability in Human Liver S9, concentration ([2]; Time 60 min) [µg/mL]",IC50 (NK1 receptor) [nM],"Metabolic Stability in Guinea Pig Liver S9, concentration ([3]; Time 1 min) [µg/mL]","Metabolic Stability in Guinea Pig Liver S9, concentration ([3]; Time 3 min) [µg/mL]","Metabolic Stability in Guinea Pig Liver S9, concentration ([3]; Time 5 min) [µg/mL]","Metabolic Stability in Guinea Pig Liver S9, concentration ([3]; Time 10 min) [µg/mL]","Metabolic Stability in Guinea Pig Liver S9, concentration ([3]; Time 15 min) [µg/mL]","Metabolic Stability in Guinea Pig Liver S9, concentration ([3]; Time 30 min) [µg/mL]","Metabolic Stability in Guinea Pig Liver S9, concentration ([3]; Time 60 min) [µg/mL]"
"COc1cc(C(=O)N2CCC(CCN3CCC(C(N)=O)(c4ccccc4)CC3)(c3ccc(Cl)c(Cl)c3)C2)cc(OC)c1OC.Cl (single isomer, unassigned; (+)) [Compound C, (+)-1-(2-(3-(3,4-dichloro-phenyl)-1-(3,4,5-trimethoxy-benzoyl)-pyrrolidin-3-yl)-ethyl)-4-phenyl-piperidine-4-carboxylic acid amide hydrochloride, reference compound]",8.17,6.2,5.6,5.9,5.2,4.5,3.2,2.5,3.04,6.3,6.0,5.3,4.8,4.0,3.8,3.5
"COc1ccc(-n2cnnn2)cc1C(=O)N1CC[C@](CCN2CCC(C(N)=O)(c3ccccc3)CC2)(c2ccc(Cl)c(Cl)c2)C1 [Compound A, (R)-1-(2-methoxy-5-(1H-tetrazol-1-yl)benzoyl)-3-(2-(4-phenyl-4-carboxamidopiperidin-1-yl)ethyl)-3-(3,4-dichlorophenyl)pyrrolidine hydrochloric acid salt]",16.3,6.6,6.5,6.6,6.7,6.6,6.8,6.9,2.79,6.1,6.6,6.3,6.1,6.1,6.3,6.9
"COc1ccc(-n2cnnn2)cc1C(=O)N1CC[C@](CCN2CCC(C(N)=O)(c3cccnc3)CC2)(c2ccc(Cl)c(Cl)c2)C1 [Compound B, (R)-1-(2-methoxy-5-(1H-tetrazol-1-yl)benzoyl)-3-(2-(4-(pyrid-3-yl)-4-carboxamidopiperidin-1-yl)ethyl)-3-(3,4-dichlorophenyl)pyrrolidine hydrochloric acid salt]",232,6.4,6.6,6.1,6.1,5.7,5.3,4.4,3.15,6.2,6.4,6.4,6.3,6.3,6.3,6.2
